Series [1] relates to TNF alpha. As to the kind of experiment: Mouse model of LPS-induced TNF alpha production. In kind it is in vivo. As for the experimental part:
TNF alpha was induced in 10-12 week old BALB/c female mice by tail vein injection with 100 ng lipopolysaccharide (from S. Typhosa) in 0.2 ml saline. One hour later mice were bled from the retroorbital sinus and TNF concentrations in serum from clotted blood were quantified by ELISA.
Efficacy was determined at each time point as percent inhibition of serum TNF levels relative to LPS injected mice that received vehicle only
wherein in the dose is milligram per kilogram (mpk) administered by oral gavage and the predose time indicates the number of hours before LPS challenge when the compound is administered.

Series [2] deals with T1, human p38 kinase alpha (Homo sapiens, UniProt Q16539).
T1 construct: The coding region of the human p38a cDNA was obtained by PCR-amplification from RNA isolated from the human monocyte cell line THP.1; GST (N); made in house; host or cells: E. coli DH10B
Briefly: p38 kinase in vitro assay, phosphorylation of biotinylated PHAS-I with gamma 32P-ATP. In kind it is biochemical. The essentials: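 MKK6-activated human p38α phosphorylates biotinylated PHAS-I with γ-32P-ATP in 25 mM HEPES pH 7.5, 10 mM Mg acetate, 50 μM unlabeled ATP, 1% DMSO, 30 °C for 1 h or overnight. Compounds at 100–0.001 μM (10-fold steps, triplicate); substrate captured on streptavidin filter plates and counted by scintillation.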

Series [3] deals with TNF-α. As to the kind of experiment: LPS stimulation of TNF production by U937 cells. In kind it is cell-based, human. In a few lines: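 PMA-differentiated human U937 cells (20 ng/ml PMA, 24 h, then 24-48 h rest) at 2 million cells/ml, 0.1% DMSO final, stimulated with E. coli LPS (100 ng/ml final) for 4 h at 37° C. TNF-α in medium measured by ELISA; IC50 in μM.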
Series [4] relates to TNF-α. Briefly: Rat assay: LPS-challenged rats, serum TNF-α by ELISA. The following applies: Rattus norvegicus, po; for inhibition in vivo at 5 mg/kg: Table 10, dose 5.0 mg/kg; for inhibition in vivo at 20 mg/kg: Table 10, dose 20.0 mg/kg. In kind it is in vivo.
For series [5], the system named is human TNF. Briefly: TNF inhibition: human whole blood assay. In kind it is cell-based. The following applies: Homo sapiens, LPS, read-out: TNF Inhibition-Human Whole Blood Assay.
Series [6] concerns the target T2, human GST-p38 kinase alpha (Homo sapiens, UniProt Q16539).
T2 construct: The coding region of the human p38a cDNA was obtained by PCR-amplification from RNA isolated from the human monocyte cell line THP.1; made in house; host or cells: E. coli DH10B
As to the kind of experiment: p38 kinase in vitro assay, second format, phosphorylation of EGFRP with 33P-ATP. In kind it is biochemical. Particulars: read-out: p38α Kinase Assay IC50. In a few lines: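 Activated human GST-p38α (pre-activated with GST-MKK6, 1 h, 30 °C) phosphorylates EGFR 21-mer peptide (200 μM) with 50 μM ATP plus γ-33P-ATP, pH 7.5, 60 min at room temperature. Unreacted ATP removed by AG 1×8 resin; supernatant scintillation-counted.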

Where [7] appears, read: Mus musculus, 30 mpk oral gavage, -6h before LPS, read-out: Mouse LPS Model % TNF inhib @ dose @ predose time.
[8] abbreviates: read-out: P38 alpha kinase IC50.
[9] abbreviates: Homo sapiens, U-937, LPS-stimulated U937 cells, read-out: U937 IC50.
[10] abbreviates: mouse, oral, 1h before LPS, 30 mpk, read-out: mLPS 1h, 30 mpk percent inhibition.
[11] abbreviates: p38α in vitro, PHAS-I assay procedure, read-out: p38^1 IC50.
Setting [12] is: Homo sapiens, U-937, TNF production, LPS-stimulated human U937 cells, read-out: U937 Cell IC50.
[13] abbreviates: read-out: Rat LPS Assay % Inhibition.

SMILES strings stand for the structures. “And” between values parts separate entries of the source, which are not always exact repeats. Equal values may be shown once. Read-outs that look alike come from different tables or passages of the source. Bounds are passed on as bounds.

T1 sequence (Q16539 whole entry): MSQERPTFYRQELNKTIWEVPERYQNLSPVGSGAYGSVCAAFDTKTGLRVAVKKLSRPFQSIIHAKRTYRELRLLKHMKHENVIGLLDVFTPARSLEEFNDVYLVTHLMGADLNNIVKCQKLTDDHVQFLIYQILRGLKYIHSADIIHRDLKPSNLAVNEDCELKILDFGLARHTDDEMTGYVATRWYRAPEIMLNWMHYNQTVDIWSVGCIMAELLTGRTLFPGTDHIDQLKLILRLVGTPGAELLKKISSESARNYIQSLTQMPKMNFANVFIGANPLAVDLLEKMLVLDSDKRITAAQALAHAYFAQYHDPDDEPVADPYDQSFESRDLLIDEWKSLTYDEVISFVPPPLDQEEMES
T2 sequence (Q16539 whole entry): as above

With `CC(Oc1ccccc1)C(=O)NCc1[nH]nc(-c2ccc(F)cc2)c1-c1ccncc1` (stereo not shown) [Example B-0087], the inhibition in vivo at 30 mg/kg in series [1] (setting [7]) stood at 38%. In series [2] (setting [8]), the IC50 was 550 nM.
Consider `OCCn1cc(-c2ccnc(CCc3ccc(F)cc3)c2)c(-c2ccc(F)cc2)n1` [Example A-272, 3-(4-fluorophenyl)-4-[2-[2-(4-fluorophenyl)ethyl]-4-pyridinyl]-1H-pyrazole-1-ethanol], for which the IC50 in series [3] (setting [9]) came out at 583 nM; in series [2] (setting [11]), 73 nM. The inhibition in vivo at 30 mg/kg in series [1] (setting [10]) was -8%.
The like results for `OCCn1cc(-c2ccncc2)c(-c2ccc(F)cc2)n1` [Example A-210, 3-(4-fluorophenyl)-4-(4-pyridinyl)-1H-pyrazole-1-ethanol] were, in that order, 198 nM, 160 nM and 93%.
The corresponding values for `CN(C)CCn1cc(-c2ccnc(N(C)C)c2)c(-c2ccc(F)cc2)n1` [Example A-273, 4-[1-[2-(dimethylamino)ethyl]-3-(4-fluorophenyl)-1H-pyrazol-4-yl]-N,N-dimethyl-2-pyridinamine] are above 10000 nM, 6980 nM and 43%.
Turning to `Cn1cc(-c2ccncc2)c(-c2cccc(F)c2)n1` [Example A-229, 4-[3-(3-fluorophenyl)-1-methyl-1H-pyrazol-4-yl]pyridine], in series [3] (setting [9]), the IC50 is 462 nM. Moreover, in series [1] (setting [10]), the inhibition in vivo at 30 mg/kg came to 91%.
For the molecule `O=C(COc1ccc(Cl)cc1)NCc1[nH]nc(-c2ccc(F)cc2)c1-c1ccncc1` [Example B-0093], the IC50 in series [3] (setting [12]) worked out at 1250 nM; in series [2] (setting [8]), 3180 nM. Besides, in series [1] (setting [7]), the inhibition in vivo at 30 mg/kg came out at 30%.
The like results for `COc1ccc(S(=O)(=O)NCc2[nH]nc(-c3ccc(F)cc3)c2-c2ccncc2)cc1` [Example B-0117] were, in that order, 1780 nM, 460 nM and 30%.
With `Cn1nc(-c2ccc(F)cc2)c(-c2ccncc2)c1C(O)c1ccccc1` (stereo not drawn) [Example A-217, 3-(4-fluorophenyl)-1-methyl -α-phenyl-4-(4-pyridinyl)-1H-pyrazole-5-methanol], the IC50 in series [3] (setting [9]) came to 349 nM; in series [2] (setting [11]) it was 697 nM. The inhibition in vivo at 30 mg/kg in series [1] (setting [10]) stood at 9%.
`Fc1ccc(-c2n[nH]cc2-c2ccnc(NCCN3CCOCC3)c2)cc1` [Example A-266, N-[4-[3-(4-fluorophenyl)-1H-pyrazol-4-yl)-2-pyridinyl]-4-morpholineethanamine]: the IC50 in series [3] (setting [9]) is 539 nM. Also, the inhibition in vivo at 30 mg/kg in series [1] (setting [10]) is 0%.
In the case of `Cc1c(-c2ccncc2)c(-c2ccc(F)cc2)nn1CC(=O)NCCc1ccc(Oc2ccccc2)cc1` [Example B-2286], the IC50 in series [3] (TNF production, LPS-stimulated human U937 cells, read-out: U937 Cell IC50) came out at 780 nM; in series [2] (setting [8]), 17 nM. Besides, the “Mouse LPS Model % TNF inhib @ dose @ predose time” value in series [1] (30 mpk oral gavage, 1 h before LPS challenge) is given as 25% @ 30 mpk @ -1h.
Regarding `COc1ccccc1Nc1nccc(-c2cn[nH]c2-c2ccc(F)cc2)n1` [Example A-326, 4-[3-(4-fluorophenyl)-1H-pyrazol-4-yl]-N-(2-methoxyphenyl)-2-pyrimidinamine], the melting point was 265 °C (dec.). For the same molecule, the inhibition in vivo at 10 mg/kg in series [4] (Table 8, dose 10.0 mg/kg) turned out to be 0%. Further, in series [5] (Table 8, human whole blood), the IC50 is above 25000 nM. In addition, the IC50 in series [6] (Table 8, 10% DMSO) was 970 nM.
`CN1CCN(c2n[nH]c(-c3ccc(I)cc3)c2-c2ccncc2)CC1` [Example A-417, 1-[5-(4-iodophenyl)-4-(4-pyridinyl)-1H-pyrazol-3-yl]-4-methylpiperazine] came in with a melting point of 265.2 to 265.8 °C. Moreover, in series [4] (setting [13]), the inhibition in vivo at 5 mg/kg was found to be 40%. In series [4], the inhibition in vivo at 20 mg/kg was found to be 70%. In series [5] (Table 10, human whole blood), the IC50 was 12000 nM. Moreover, the IC50 in series [6] (Table 10, 10% DMSO, @ 1.0 hour) came to 190 nM.
The like results for `CC(C)(C)OC(=O)N1CCC(Oc2[nH]nc(-c3ccc(Cl)cc3)c2-c2ccncc2)CC1` [Example A-441] were, in that order, 230.1 to 231.8 °C, 14%, 62%, above 25000 nM and 1210 nM.
Turning to `[O-][S+](c1[nH]nc(-c2ccc(Cl)cc2)c1-c1ccncc1)C1CCNCC1` (stereo not shown) [Example A-482], the melting point is 189.1 to 190.8 °C. Further, the inhibition in vivo at 20 mg/kg in series [4] came to 15%. Besides, the IC50 in series [5] (Table 10, human whole blood) was 690 nM. For the same molecule, the IC50 in series [6] (Table 10, 10% DMSO, @ 1.0 hour) came out at 1620 nM.
With `CN(C)CCNc1cc(-c2c[nH]nc2-c2ccc(F)cc2)ccn1` [Example A-264, N′-[4-[3-(4-fluorophenyl)-1H-pyrazol-4-yl]-2-pyridinyl]-N,N-dimethyl-1,2-ethanediamine], the IC50 in series [3] (setting [9]) came to 259 nM. In series [1] (setting [10]), the inhibition in vivo at 30 mg/kg worked out at 61%.
In the case of `CN1CCC(Oc2[nH]nc(-c3ccc(Cl)cc3)c2-c2ccncc2)CC1` [Example A-448, 3-(4-chlorophenyl)-5-[(1-methylpiperidin-4-yl)-oxy]-4-pyridin-4-yl-1H-pyrazole], the melting point lay within 255.9 to 256.8 °C. In addition, the inhibition in vivo at 5 mg/kg in series [4] (setting [13]) amounted to 73%. In series [4], the inhibition in vivo at 20 mg/kg was 97%. In series [5] (Table 10, human whole blood), the IC50 was 120 nM. Also, the IC50 in series [6] (Table 10, 10% DMSO, @ 1.0 hour) was determined as 84 nM.
`O=C(CSc1[nH]nc(-c2ccc(Cl)cc2)c1-c1ccncc1)N1CCOCC1` [Example A-476] yielded a melting point of 215.4 to 215.5 °C. Further, the inhibition in vivo at 20 mg/kg in series [4] is 35%. In addition, the IC50 in series [5] (Table 10, human whole blood) was 970 nM. Further, in series [6] (Table 10, 10% DMSO, @ 1.0 hour), the IC50 amounted to 1010 nM.
For the molecule `CSc1[nH]nc(-c2ccc(Cl)cc2)c1-c1ccncc1` [Example A-435], the melting point turned out to be 250.2 °C. Also, in series [4] (Table 10, dose 1.0 mg/kg, read-out: Rat LPS Assay % Inhibition), the inhibition in vivo at 1 mg/kg came out at 10%. Also, the inhibition in vivo at 5 mg/kg in series [4] (setting [13]) worked out at 0%. In addition, the inhibition in vivo at 20 mg/kg in series [4] was determined as 14%. For the same molecule, in series [5] (Table 10, human whole blood), the IC50 was above 25000 nM. For the same molecule, in series [6] (Table 10, 10% DMSO, @ 1.0 hour), the IC50 came to 350 nM.
Molecule `Clc1ccc(-c2n[nH]c(SCC3OCCO3)c2-c2ccncc2)cc1` [Example A-473] displayed a melting point of 197 to 198.2 °C. In series [4], the inhibition in vivo at 20 mg/kg amounted to 58%. In series [5] (Table 10, human whole blood), the IC50 was 560 nM. In addition, in series [6] (Table 10, 10% DMSO, @ 1.0 hour), the IC50 turned out to be 170 nM.
`Clc1ccc(-c2n[nH]c(N3CCN(C4CC4)CC3)c2-c2ccncc2)cc1` [Example A-322, 1-[5-(4-chlorophenyl)-4-(4-pyridinyl)-1H-pyrazol-3-yl)-4-cyclopropylpiperazine] gave a melting point of 264 to 265 °C. The inhibition in vivo at 3 mg/kg in series [4] (Table 8, dose 3.0 mg/kg, read-out: Rat LPS Assay % Inhibition) stood at 51.5%. Besides, in series [5] (Table 8, human whole blood), the IC50 worked out at 4200 nM. In addition, the IC50 in series [6] (Table 8, 10% DMSO) was 150 nM and 250 nM.
With `Fc1ccc(-c2nn(CCN3CCOCC3)cc2-c2ccnc(F)c2)cc1` [Example A-269, 4-[2-[3-(4-fluorophenyl)-4-(2-fluoro-4-pyridinyl)-1H-pyrazol-1-yl]ethyl]morpholine], the IC50 in series [3] (setting [9]) is above 10000 nM. Moreover, in series [1] (setting [10]), the inhibition in vivo at 30 mg/kg is 51%.
Regarding `COc1ccc(-c2[nH]nc(N3CCN(C)CC3)c2-c2ccncc2)cc1Cl` [Example A-413], the melting point lay within 272.7 to 276.4 °C. Moreover, in series [4] (setting [13]), the inhibition in vivo at 5 mg/kg amounted to 45%. For the same molecule, the inhibition in vivo at 20 mg/kg in series [4] worked out at 85%. For the same molecule, in series [5] (Table 10, human whole blood), the IC50 came out at 6510 nM. In series [6] (Table 10, 10% DMSO, @ 1.0 hour), the IC50 came to 910 nM.
As to `C#CCNC(=O)Cn1nc(-c2ccc(F)cc2)c(-c2ccncc2)c1C` [Example B-2310], in series [1] (30 mpk oral gavage), the “Mouse LPS Model % TNF inhib @ dose @ predose time” value is recorded as 50% @ 30 mpk @ -6h.
As for `Cc1cc(C(=O)C(=C2SCS2)c2ccncc2)ccc1Cl` [Example A-391, 1-(4-chloro-3-methylphenyl)-2-1,3-dithietan-2-ylidene-2-pyridin-4-yl-ethanone], the melting point lay within 164 to 165 °C. The inhibition in vivo at 20 mg/kg in series [4] was determined as 53%. The IC50 in series [5] (Table 10, human whole blood) was above 25000 nM. In addition, the IC50 in series [6] (Table 10, 10% DMSO, @ 1.0 hour) was determined as 4830 nM.
